Test systems include SR; UACC-62; HOP-62; COLO 205; SNB-19; U-251; MDA-N; MOLT-4; SK-MEL-5; HCC 2998; DU-145; KM12; CAKI-1; A549; HCT-15; SK-OV-3; RPMI-8226; NCI-H460; NCI-H522; HOP-92.
What all share (assay): growth of human tumour cells (NCI), 48 h

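Growth conditions: 96-well plates. Treatment: test compound, 48 hours, 5 concentrations. Analysis: linear interpolation between bracketing concentrations; unreached endpoints set to highest concentration. Abbreviation: GI50, concentration required for 50% inhibition of growth.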 Activity calls are given as the source filed them. Cut-off read from the data, not from the text of the source: active = GI50 up to about 1.1 µM and inactive = higher.

Consider `O=C(NCCNCCNC(=O)C(F)(F)F)C(F)(F)F`, for which the GI50 with SR, in the test on UACC-62, in the test on HOP-62, in the test on COLO 205, in the test with SNB-19 and in the test with U-251 was > 100 µM (inactive) in each case. Moreover, the GI50 in the test with MDA-N, in the test on MOLT-4, in the test on SK-MEL-5, with HCC 2998, with DU-145 and in the test with KM12 was > 100 µM (inactive) in each case. The GI50 is > 100 µM (inactive) in the test on CAKI-1; > 100 µM (inactive) with A549; above 100 µM in the test on HCT-15; > 100 µM (inactive) in the test with SK-OV-3; > 100 µM (inactive) in the test on RPMI-8226.
On to `[O-]/[N+](=N\c1ccccc1CO)c1ccccc1CO`, for which the GI50 in the test on SR, with NCI-H460, in the test with UACC-62, with COLO 205, in the test on SNB-19 and in the test with U-251 was > 100 µM (inactive) throughout. In addition, the GI50 with NCI-H522, in the test with MDA-N, with MOLT-4, with SK-MEL-5, in the test on HCC 2998 and in the test on DU-145 was > 100 µM (inactive) in each case. In addition, the GI50 is > 100 µM (inactive) with KM12; > 100 µM (inactive) in the test with CAKI-1; > 100 µM (inactive) with A549; above 100 µM in the test on HCT-15; > 100 µM (inactive) with SK-OV-3; > 100 µM (inactive) with RPMI-8226.
In the case of `Nc1cccc(Nc2nc3ccccc3nc2NS(=O)(=O)c2ccccc2)c1`, the GI50 was 20.3 µM (inactive) in the test with SR; 22.1 µM (inactive) with NCI-H460; 20.7 µM (inactive) with UACC-62; 23.3 µM (inactive) in the test on HOP-92; 26.7 µM (inactive) with HOP-62; 15.8 µM (inactive) with COLO 205. The GI50 is 19.5 µM (inactive) in the test with SNB-19; 17.7 µM (inactive) in the test with U-251; 33.4 µM (inactive) with MDA-N; 15.9 µM (inactive) with MOLT-4; 15.4 µM (inactive) in the test on SK-MEL-5; 15.9 µM (inactive) in the test on HCC 2998. Moreover, the GI50 is 31.5 µM (inactive) with DU-145; 18.8 µM (inactive) in the test on KM12; 27 µM (inactive) in the test on CAKI-1; 33 µM (inactive) with A549; 25.6 µM in the test on HCT-15; 30.4 µM (inactive) in the test with SK-OV-3. In addition, in the test with RPMI-8226, the GI50 is 16.7 µM (inactive).
Take `COc1cc2oc(=O)ccc2cc1C1OC(=O)C2OC21C` (centres undefined): the GI50 in the test on SR, in the test on NCI-H460, in the test with UACC-62, with HOP-92, in the test on HOP-62 and in the test with COLO 205 was > 100 µM (inactive) throughout. Further, the GI50 in the test on SNB-19, in the test with U-251, with MDA-N, in the test with MOLT-4, in the test with SK-MEL-5 and in the test on HCC 2998 was > 100 µM (inactive) throughout. Moreover, the GI50 with DU-145 was > 100 µM (inactive); with KM12, > 100 µM (inactive); in the test with CAKI-1, > 100 µM (inactive); in the test with A549, > 100 µM (inactive); with HCT-15, above 100 µM; in the test with SK-OV-3, > 100 µM (inactive). In the test with RPMI-8226, the GI50 is > 100 µM (inactive).
Regarding `COC(=O)C1=C(C(=O)OC)C2(C)CCC(=O)C1O2` (centres undefined), the GI50 in the test on SR, in the test with NCI-H460, with UACC-62, in the test on HOP-62, in the test with COLO 205 and in the test on SNB-19 was > 10 µM (inactive) in each case. Moreover, the GI50 with U-251, with MDA-N, in the test with MOLT-4, in the test with SK-MEL-5, with HCC 2998 and in the test with DU-145 was > 10 µM (inactive) each time. For the same compound, the GI50 with KM12 is > 10 µM (inactive); in the test on CAKI-1, > 10 µM (inactive); with A549, > 10 µM (inactive); with HCT-15, above 10 µM; in the test on SK-OV-3, > 10 µM (inactive); with RPMI-8226, > 10 µM (inactive).
On to `CC(C)(C)C1CC[C@H](O)[C@H]([C@H](O)CC2CC(=O)N(c3ccccc3)C(=O)C2)C1` (some centres undefined), for which the GI50 with SR was > 100 µM (inactive); in the test on NCI-H460 it was 95.9 µM (inactive); with UACC-62 it was 31.5 µM (inactive); in the test on HOP-92, 36.1 µM (inactive); in the test with HOP-62, 74.6 µM (inactive); in the test with SNB-19, > 100 µM (inactive). The GI50 in the test on U-251 is > 100 µM (inactive); in the test on NCI-H522, > 100 µM (inactive); with MDA-N, > 100 µM (inactive); in the test on MOLT-4, 99.3 µM (inactive); in the test on SK-MEL-5, > 100 µM (inactive); in the test on HCC 2998, > 100 µM (inactive). Further, the GI50 is > 100 µM (inactive) with DU-145; > 100 µM (inactive) in the test on KM12; > 100 µM (inactive) in the test with CAKI-1; > 100 µM (inactive) with A549; above 100 µM in the test with HCT-15.
In the case of `O=[Se](O)O`, the GI50 with SR was 10 µM (inactive); with NCI-H460 it was 0.762 µM (active); with UACC-62, 1.32 µM (inactive); in the test on HOP-62, 0.577 µM (active); with COLO 205 it was > 30.7 µM (inactive); in the test on SNB-19 it was 1.03 µM (active). For the same compound, the GI50 with U-251 was 0.815 µM (active); in the test with NCI-H522, 12.2 µM (inactive); with MDA-N, 2.24 µM (inactive); in the test on MOLT-4, > 20.1 µM (inactive); with SK-MEL-5 it was 2.33 µM (inactive); in the test on HCC 2998, > 20.3 µM (inactive). Moreover, the GI50 with DU-145 was 1.47 µM (inactive); in the test with KM12, 1.63 µM (inactive); with CAKI-1 it was 34.2 µM (inactive); with A549 it was 1.15 µM (inactive); in the test on HCT-15 it was 3.15 µM; with SK-OV-3, 0.984 µM (active). For the same compound, the GI50 with RPMI-8226 was 3.29 µM (inactive).
Turning to `Nc1cccnc1NCC1(CO)CCCC1`, the GI50 in the test with SR, in the test on NCI-H460, in the test on UACC-62, in the test with HOP-62, with COLO 205 and in the test on U-251 was > 100 µM (inactive) throughout. Besides, the GI50 with NCI-H522, in the test with MDA-N, in the test on MOLT-4, in the test on SK-MEL-5, in the test on HCC 2998 and with DU-145 was > 100 µM (inactive) throughout. Moreover, the GI50 in the test with KM12 is > 100 µM (inactive); in the test on CAKI-1, > 100 µM (inactive); in the test with A549, > 100 µM (inactive); in the test on HCT-15, above 100 µM; in the test on SK-OV-3, > 100 µM (inactive); with RPMI-8226, > 100 µM (inactive).
In the case of `O=c1cc(CNC2CC3CCC2C3)[nH]c(=O)[nH]1` (centres undefined), the GI50 with SR, in the test on NCI-H460, with UACC-62, in the test on HOP-62, in the test on COLO 205 and with SNB-19 was > 100 µM (inactive) each time. Also, the GI50 in the test on U-251, in the test on NCI-H522, in the test on MDA-N, with MOLT-4, in the test on SK-MEL-5 and with HCC 2998 was > 100 µM (inactive) in each case. The GI50 is > 100 µM (inactive) in the test on DU-145; > 100 µM (inactive) with KM12; > 100 µM (inactive) in the test on CAKI-1; > 100 µM (inactive) with A549; above 100 µM with HCT-15; > 100 µM (inactive) in the test with SK-OV-3. Also, in the test with RPMI-8226, the GI50 was > 100 µM (inactive).
Turning to `C=C(CN)CO[Si](C)(C)C(C)(C)C`, the GI50 in the test on SR, in the test with NCI-H460, with UACC-62, with HOP-62, in the test with COLO 205 and with SNB-19 was > 100 µM (inactive) each time. For the same compound, the GI50 in the test on U-251, in the test on NCI-H522, with MDA-N, in the test with MOLT-4, in the test on SK-MEL-5 and in the test with HCC 2998 was > 100 µM (inactive) in each case. For the same compound, the GI50 was > 100 µM (inactive) in the test with DU-145; > 100 µM (inactive) in the test with KM12; > 100 µM (inactive) in the test on CAKI-1; > 100 µM (inactive) in the test on A549; above 100 µM with HCT-15; > 100 µM (inactive) in the test on SK-OV-3. In the test on RPMI-8226, the GI50 is > 100 µM (inactive).
For the compound `O=C1NC(=O)[C@@H](OCC2CCCCC2)[C@@H]2OCC3OC(C(O)C3O)C12` (some centres undefined), the GI50 in the test with SR, in the test with NCI-H460, in the test with UACC-62, in the test with HOP-62, with COLO 205 and in the test on SNB-19 was > 100 µM (inactive) throughout. The GI50 in the test with MDA-N, in the test on MOLT-4, with SK-MEL-5, in the test with HCC 2998, in the test with DU-145 and in the test on KM12 was > 100 µM (inactive) throughout. The GI50 is > 100 µM (inactive) in the test on CAKI-1, > 100 µM (inactive) in the test on A549, above 100 µM with HCT-15 and > 100 µM (inactive) with SK-OV-3.

Values taken from ChEMBL document CHEMBL1201862, “PubChem BioAssay data set” (2004).
